Measured values: patent US6878742B2, “Heterocyclic sulfonamide inhibitors of beta amyloid production” (Wyeth, priority 2000, dated 2005)
Several values for one entry are separate records, joined by “and”; a condition that tells them apart may be missing. Equal entries are not always repeated.

Assays:
[1] = test system: amyloid precursor protein (APP) proteolysis; assay: Repressor Release Assay (RRA); type: cell-based; conditions: luciferase activity over diluent control; for fold induction at 20 µg/mL / fold induction at 10 µg/mL: read-out: APPI Fold Increase
Procedure, shortened: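 This repressor release assay monitors APP proteolysis in mammalian cells. Transfected CHO-K1 cells (pRSVO-luc plus APP-lacI) were seeded at […], treated with compound diluted in 25 mM Hepes, then incubated 36-48 hours. After replacing media with PBS and adding LucLite lysis/substrate buffer, luminescence was measured, and fold increase over diluent control was calculated.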

| Structure (SMILES) | fold induction at 20 µg/mL ([1]; Conc 20 μg/mL) | fold induction at 10 µg/mL ([1]; Conc 10 μg/mL) | further results |
| --- | --- | --- | --- |
| O=S(=O)(NC(CO)C1CCSCC1)c1ccc(Cl)s1 (centres unmarked) [Example 224, 5-Chloro-N-(2-hydroxy-1-tetrahydro-H-thiopyran-4-ylethyl)thiophene-2-sulfonamide] | 7.2 |  | melting point: 108 to 110 °C |
| CCC(CC)[C@H](NS(=O)(=O)c1ccc(Cl)s1)C(C)O (stereo partly drawn) [Example 222, 5-Chloro-N-[(S)-2-ethyl-1-(1-hydroxyethyl)butyl]thiophene-2-sulfonamide] | 7.2 |  | melting point: 95 to 98 °C |
| CC[C@@H](c1ccc(-c2ccccc2)cc1)[C@@H](CO)NS(=O)(=O)c1ccc(Br)s1 [Example 76, N-[(1S,2S)-2-[1,1′-biphenyl]-4-yl-1-(hydroxymethyl)butyl]-5-bromothiophene-2-sulfonamide] | 3.2 |  |  |
| CC[C@H](C)[C@H](NS(=O)(=O)c1ccc(Cl)s1)C(O)(c1ccc(Cl)cc1)c1ccc(Cl)cc1 [Example 167, N-{(S,S)-1-[bis(4-chlorophenyl)(hydroxy)methyl]-2-methylbutyl}-5-chlorothiophene-2-sulfonamide] |  | 3.42 |  |
| C[C@H](OCc1ccccc1)[C@@H](CO)NS(=O)(=O)c1ccc(Cl)s1 [Example 102, N-[(R,S)-2-(benzyloxy)-1-(hydroxymethyl)propyl]-5-chlorothiophene-2-sulfonamide] | 1.6 |  |  |
| CC[C@H](C)[C@H](NS(=O)(=O)c1ccc(Cl)s1)C(O)c1ccc(OC)cc1 (stereo partly drawn) [Example 134, 5-chloro-N-{(S,S)-1-[hydroxy(4-methoxyphenyl)methyl]-2-methylbutyl}thiophene-2-sulfonamide] |  | 2.42 |  |
| CC(C)(C)[C@@H](CO)NS(=O)(=O)c1ccc(Br)s1 [Example 113] |  |  | APPI Fold Increase ([1]; Conc 10 μg/mL): 2.86 fold |
| CCC(C)C(NS(=O)(=O)c1ccc(Cl)s1)C(O)CC(C)C (mixture of isomers) [Example 126] |  |  | APPI Fold Increase ([1]; Conc 10 μg/mL): 5.25 fold and 3.31 fold |
| CCCCCCC(O)[C@@H](NS(=O)(=O)c1cccs1)[C@@H](C)CC (stereo partly drawn) [Example 141, N-{(S)-2-hydroxy-1-[(S)-1-methylpropyl]octyl}thiophene-2-sulfonamide] |  | 4.2 |  |
| C=CC(O)[C@@H](NS(=O)(=O)c1cccs1)[C@@H](C)CC (stereo partly drawn) [Example 146, N-{(S)-2-hydroxy-1-[(S)-1-methylpropyl]but-3-enyl}thiophene-2-sulfonamide] |  | 1.83 |  |
| CCCCC(CCCC)[C@@H](CO)NS(=O)(=O)c1ccc(Cl)s1 [Example 205, N-[(1S)-2-Butyl-1-(hydroxymethyl)hexyl]-5-chloro-2-thiophenesulfonamide] | 2.6 |  |  |
| CCNC(C)(CO)CNS(=O)(=O)c1ccc(Cl)s1 (centres unmarked) [Example 80] |  |  | APPI Fold Increase ([1]; Conc 20 μg/mL): 1.8 fold |
